Tested on: rat aortic VSMC
Assay: Resazurin conversion assay of PDGF-induced VSMC proliferation
Assay type: cell-based
Conditions: 30 µM, 48 h, resazurin conversion
Method: With the aim to identify novel natural product inhibitors of VSMC proliferation, we tested several natural products (not shown) from our in-house compound collection on their ability to inhibit proliferation of rat aortic VSMC induced by the platelet-derived growth factor (PDGF), which is a mitogen strongly associated with aberrant proliferation in restenosis and leads to excessive proliferation of VSMC. After stimulation of the VSMC for 48 h with PDGF, the total number of metabolically active cells was measured by resazurin conversion. In this way, the xanthone gentisin (1,7-dihydroxy-3-methoxyxanthone (1)), previously isolated from the root material of G. lutea, a well-known medicinal bitter plant from the Gentianaceae family, was identified as a novel inhibitor of VSMC proliferation. […] Although an anti-proliferative effect of a prenylated xanthone has been described earlier, it represents a novel activity for simple, nonprenylated xanthones.
(§1) Rat aortic VSMC were acquired from Lonza and grown in Dulbecco’s modified essential medium (DMEM)–F12 (1:1) supplemented with 20% fetal calf serum (FCS) and gentamycin. For all experiments, cells were seeded in 96-well plates (5 × 10^3 cells/well) and incubated for 24 h. Subsequently, cells were serum-starved for another 24 h to make them quiescent.
Quiescent VSMC were pre-treated with the studied test compounds, G. lutea root extract, or vehicle (0.1% DMSO) for 30 min and then stimulated with PDGF-BB (20 ng/mL) for 48 h. The number of metabolically active VSMC was measured by resazurin conversion. Therefore, after washing the cells with phosphate-buffered saline (PBS), they were incubated in serum-free medium containing resazurin (10 µg/mL) for 2 h. Measurement of total metabolic activity was performed by monitoring the increase in fluorescence at 590 nm using an excitation wavelength of 535 nm in a 96-well plate reader (Tecan GENios Pro, Grödig, Austria). The assay was validated using the VSMC proliferation inhibitor taxol (IC50 = 0.1 µM [21]).

Structure (SMILES)	Inhibition of PDGF-induced VSMC proliferation at 30 µM (in words)
COc1cc(O)c2c(=O)c3cc(O)ccc3oc2c1 [Compound 1, 1,7-dihydroxy-3-methoxyxanthone]	completely inhibited PDGF-induced proliferation to the basal level

Same assay, conditions: PDGF-BB 20 ng/mL, 48 h; concentrations 1, 3, 10, 30 µM; read-out: Inhibition of VSMC Proliferation, Resazurin Conversion Assay, IC50

Structure (SMILES)	IC50
COc1cc(O)c2c(=O)c3cc(O)ccc3oc2c1 [Compound 1, 1,7-dihydroxy-3-methoxyxanthone]	7.84 µM

Same assay, conditions: Rattus norvegicus, VSMC, 48 h, PDGF-BB 20 ng/mL, 48 h; concentrations 1, 3, 10, 30 µM; read-out: Inhibition of VSMC Proliferation, Resazurin Conversion Assay, IC50

Structure (SMILES)	IC50
COc1c(OC)c(O)c2c(=O)c3cccc(OC)c3oc2c1OC [Compound 4, 1-hydroxy-2,3,4,5-tetramethoxyxanthone]	11.2 µM
COc1cc(O)c2c(=O)c3c(O)ccc(OC)c3oc2c1 [Compound 6, 1,8-dihydroxy-3,5-dimethoxyxanthone]	12.5 µM
COc1ccc2oc3cc(O)cc(O)c3c(=O)c2c1 [Compound 2, 1,3-dihydroxy-7-methoxyxanthone]	27 µM
COc1cc(O)c2c(=O)c3cccc(O)c3oc2c1 [Compound 8, 1,5-dihydroxy-3-methoxyxanthone]	29.5 µM
COc1cc(O)c2c(=O)c3cc(O)ccc3oc2c1 [Compound 1, 1,7-dihydroxy-3-methoxyxanthone]	7.8 µM
COc1cc(O)c2c(=O)c3c(O)c(OC)ccc3oc2c1 [Compound 7, 1,8-dihydroxy-3,7-dimethoxyxanthone]	10.2 µM

Same assay, conditions: Rattus norvegicus, VSMC; 30 µM compound; PDGF-BB 20 ng/mL, 48 h; residual proliferation relative to PDGF + 0.1% DMSO control = 1.00; means ± SD, n = 3; read-out: Inhibition of VSMC Proliferation, Resazurin Conversion Assay, at 30 µM (Relative to Solvent vehicle = 1.00, RU)

Structure (SMILES)	activity at 30 µM
COc1c(O)cc2oc3c(OC)c(O)ccc3c(=O)c2c1O [Compound 11, 1,3,6-trihydroxy-2,5-dimethoxyxanthone]	94.2 ± 4.2%
COc1cc2oc3c(OC)cccc3c(=O)c2c(O)c1OC [Compound 3, 1-hydroxy-2,3,5-trimethoxyxanthone]	83.2 ± 10.4%
COc1cc(O)c2c(=O)c3c(OC)c(OC)c(O)c(OC)c3oc2c1 [Compound 12, 1,6-dihydroxy-3,5,7,8-tetramethoxyxanthone]	86.2 ± 6.8%
COc1c(OC)c(O)c2c(=O)c3cccc(OC)c3oc2c1OC [Compound 4, 1-hydroxy-2,3,4,5-tetramethoxyxanthone]	21.6 ± 5.8%
COc1ccc2oc3c(OC)c(OC)c(OC)c(O)c3c(=O)c2c1 [Compound 5, 1-hydroxy-2,3,4,7-tetramethoxyxanthone]	75.4 ± 1.4%
COc1cc(O)c2c(=O)c3c(O)ccc(OC)c3oc2c1 [Compound 6, 1,8-dihydroxy-3,5-dimethoxyxanthone]	51.4 ± 6.7%
COc1ccc2oc3cc(O)cc(O)c3c(=O)c2c1 [Compound 2, 1,3-dihydroxy-7-methoxyxanthone]	59.3 ± 8.4%
COc1cc(O)c2c(=O)c3c(O)c(OC)c(O)c(OC)c3oc2c1 [Compound 13, 1,6,8-trihydroxy-3,5,7-trimethoxyxanthone]	84.6 ± 9.6%
COc1cc(O)c2c(=O)c3cccc(O)c3oc2c1 [Compound 8, 1,5-dihydroxy-3-methoxyxanthone]	71.3 ± 6.1%
COc1cc(O)c2c(=O)c3cc(O)ccc3oc2c1 [Compound 1, 1,7-dihydroxy-3-methoxyxanthone]	33.5 ± 17.5%
COc1c(O)cc2oc3c(O)cccc3c(=O)c2c1O [Compound 14, 1,3,5-trihydroxy-2-methoxyxanthone]	86.2 ± 10.4%
COc1cc(O)c2c(=O)c3c(O)c(OC)ccc3oc2c1 [Compound 7, 1,8-dihydroxy-3,7-dimethoxyxanthone]	0.2 ± 1.4%
COc1cc(O)c2c(=O)c3ccc(O)c(OC)c3oc2c1 [Compound 10, 1,6-dihydroxy-3,5-dimethoxyxanthone]	98.7 ± 2.5%
COc1cc(O)c2c(=O)c3c(O)ccc(O)c3oc2c1 [Compound 9, 1,5,8-trihydroxy-3-methoxyxanthone]	78.3 ± 3.1%

Same assay, conditions: summary rating of the 14 xanthones

Structure (SMILES)	Anti-proliferative activity in rat aortic VSMC (in words)
COc1cc2oc3c(OC)cccc3c(=O)c2c(O)c1OC [Compound 3, 1-hydroxy-2,3,5-trimethoxyxanthone]	weakly active or inactive
COc1c(OC)c(O)c2c(=O)c3cccc(OC)c3oc2c1OC [Compound 4, 1-hydroxy-2,3,4,5-tetramethoxyxanthone]	potent inhibitory activity
COc1ccc2oc3c(OC)c(OC)c(OC)c(O)c3c(=O)c2c1 [Compound 5, 1-hydroxy-2,3,4,7-tetramethoxyxanthone]	weakly active or inactive
COc1cc(O)c2c(=O)c3c(O)ccc(OC)c3oc2c1 [Compound 6, 1,8-dihydroxy-3,5-dimethoxyxanthone]	potent inhibitory activity
COc1ccc2oc3cc(O)cc(O)c3c(=O)c2c1 [Compound 2, 1,3-dihydroxy-7-methoxyxanthone]	moderately active
COc1cc(O)c2c(=O)c3cccc(O)c3oc2c1 [Compound 8, 1,5-dihydroxy-3-methoxyxanthone]	moderately active
COc1cc(O)c2c(=O)c3cc(O)ccc3oc2c1 [Compound 1, 1,7-dihydroxy-3-methoxyxanthone]	most potent compound
COc1cc(O)c2c(=O)c3c(O)c(OC)ccc3oc2c1 [Compound 7, 1,8-dihydroxy-3,7-dimethoxyxanthone]	potent inhibitory activity

Tested on: rat aortic VSMC
Assay: BrdU incorporation assay (DNA synthesis) in PDGF-stimulated VSMC
Assay type: cell-based
Conditions: PDGF-BB 20 ng/mL, BrdU added after 2 h, read after 22 h, read-out: Inhibition of VSMC Proliferation, BrdU Assay, IC50
Method: In this assay, the DNA synthesis in dividing VSMC is measured by quantification of BrdU incorporation into newly synthesized DNA.
as §1
Quiescent VSMC were pre-treated with test compounds or vehicle (0.1% DMSO) for 30 min and then stimulated with PDGF-BB (20 ng/mL) for 2 h. Subsequently, BrdU was added to estimate de novo DNA synthesis in VSMC [29, 30]. After 22 h, the BrdU incorporation was determined according to the instructions of the manufacturer (Roche Diagnostics, Vienna, Austria).

Structure (SMILES)	IC50
COc1c(OC)c(O)c2c(=O)c3cccc(OC)c3oc2c1OC [Compound 4, 1-hydroxy-2,3,4,5-tetramethoxyxanthone]	24.5 µM
COc1cc(O)c2c(=O)c3c(O)ccc(OC)c3oc2c1 [Compound 6, 1,8-dihydroxy-3,5-dimethoxyxanthone]	7.37 µM
COc1cc(O)c2c(=O)c3cc(O)ccc3oc2c1 [Compound 1, 1,7-dihydroxy-3-methoxyxanthone]	5.74 µM
COc1cc(O)c2c(=O)c3c(O)c(OC)ccc3oc2c1 [Compound 7, 1,8-dihydroxy-3,7-dimethoxyxanthone]	7.53 µM

Tested on: rat aortic VSMC
Assay: Assessment of cytotoxicity by LDH release
Assay type: cell-based
Conditions: concentration range up to 30 µM; PDGF-BB 20 ng/mL, 24 h
Method: Loss of VSMC membrane integrity as a sign for cell death was quantified by measuring the release of the soluble cytosolic protein LDH.
as §1
Quiescent VSMC were pre-treated with test compounds, positive control (digitonin 100 µg/mL, corresponding to 81 µM), or vehicle (0.1% DMSO) for 30 min and then stimulated with PDGF-BB (20 ng/mL) for 24 h. Loss of cell membrane integrity as an indicator for cell death was quantified by measuring the release of LDH [31, 32]. Therefore, the LDH activity of the cell supernatant was determined. To estimate total LDH, identically treated samples were incubated in the presence of 1% Triton X-100 for 45 min. […] The enzyme reaction was stopped by oxymate (1.78 mg/mL) and the absorbance was read at 490 nm. The percentage of extracellular LDH enzyme activity was calculated to estimate potential effects of the samples on cell viability.

Structure (SMILES)	Cytotoxicity (LDH release in the culture medium)
COc1c(OC)c(O)c2c(=O)c3cccc(OC)c3oc2c1OC [Compound 4, 1-hydroxy-2,3,4,5-tetramethoxyxanthone]	not cytotoxic
COc1cc(O)c2c(=O)c3c(O)ccc(OC)c3oc2c1 [Compound 6, 1,8-dihydroxy-3,5-dimethoxyxanthone]	not cytotoxic
COc1cc(O)c2c(=O)c3cc(O)ccc3oc2c1 [Compound 1, 1,7-dihydroxy-3-methoxyxanthone]	not cytotoxic
COc1cc(O)c2c(=O)c3c(O)c(OC)ccc3oc2c1 [Compound 7, 1,8-dihydroxy-3,7-dimethoxyxanthone]	not cytotoxic

Source: article PMC6332299, “Nonprenylated Xanthones from Gentiana lutea, Frasera caroliniensis, and Centaurium erythraea as Novel Inhibitors of Vascular Smooth Muscle Cell Proliferation” (Molecules, 2015)
